Laboratory results from patent publication US20130129675A1, “INTERFERON THERAPIES IN COMBINATION WITH BLOCKADE OF STAT3 ACTIVATION” (BOARD OF REGENTS, THE UNIVERSITY OF TEXAS SYSTEM, priority 2009, published 2013).

Legend:
[1] = system: intracerebral B16 melanoma; experiment: Survival of mice with established intracerebral B16 melanoma; assay type: in vivo, C57BL/6J mice; settings: for median overall survival: WP1193 30 mg/kg oral gavage (sub-therapeutic) from day 3, IFN-α plasmid i.v. day 5, control 17 days; for increase in median survival: versus control (17 days)
Text: For the in vivo experiments, we used 4- to 6-week-old female C57BL/6J mice maintained in the M. D. Anderson Cancer Center Isolation Facility in accordance with Laboratory Animal Resources Commission standards and conducted according to an Institutional Animal Care and Use Committee-approved protocol, 08-06-11831. A mouse was euthanized when it became unable to reach food or water. To induce intracerebral tumors in C57BL/6J mice, B16 cells were collected in logarithmic growth phase, washed twice with PBS, mixed with an equal volume of 10% methyl cellulose and RPMI 1640 medium and loaded into a 250-μl syringe (Hamilton, Reno, Nev.) with an attached 25-gauge needle. The needle was positioned 2 mm to the right of bregma and 4 mm below the surface of the skull at the coronal suture using a stereotactic frame (Kopf Instruments, Tujunga, Calif.). The intracerebral tumorigenic dose for the B16 cells was 5×10^2 in a total volume of 5 μl.
pORF.IFN-α (IFN-α) plasmid was obtained from Invivogen (29). Hydrodynamic gene transfer (HGT) consisted of a single intravenous (i.v.) injection of 3 μg endotoxin-free pORF plasmid encoding murine IFN-α or pORF control plasmid DNA (InvivoGen, San Diego, Calif.) in 2 ml of saline as previously described. Liu F, Song Y, Liu D, Hydrodynamics-Based Transfection In Animals By Systemic Administration Of Plasmid DNA, Gene Therapy 1999; 6:1258-66. […] Sikora A G, Jaffarzad N, Hailemichael Y, Gelbard A, Stonier S W, Schluns K S, Frasca L, Lou Y, Liu C, Andersson H A, Hwu P, Overwijk W W, IFN-A Enhances Peptide Vaccine-Induced CD8+ T Cell Numbers, Effector Function, And Antitumor Activity, J Immunol 2009, 182:7398-407. The STAT3 inhibitor, WP1193, was synthesized and supplied by Dr. Priebe (M. D. Anderson). WP1193, a third-generation analogue inhibitor of the p-STAT3 pathway, was dissolved in a mixture of 20 parts dimethylsulfoxide (DMSO) to 80 parts polyethylene glycol (PEG) 300 (Sigma-Aldrich, St Louis, Mo.) at titered concentrations and delivered in a final volume of 100 μL. Prior to use, WP1193 was stored as a lyophilized powder at 4° C.
Treatment for the established intracerebral tumors was with WP1193 (starting on day 3) and/or IFN-α (starting on day 5) after B16 tumor cell challenge. Mice were injected intravenously (i.v.) with 2 ml (3 μg) of IFN-α plasmid in saline once. Mice were treated with a sub-therapeutic dose of 30 mg/kg of WP1193 by oral gavage (o.g.) in a vehicle of DMSO/PEG300 (20 parts/80 parts) on […], on a […]. schedule (5 days on, 2 days off). When mice were treated in the therapeutic range of 40 mg/kg, >80% of animals survived long-term (more than 70 days) and synergy with IFN-α could not be assessed. Ten mice per experimental group were used, including treatment with the DMSO/PEG300 vehicle alone in the control group.
Kaplan-Meier product-limit survival probability estimates of overall survival were calculated and log-rank tests were performed to compare overall survival between treatment groups and the control arm. Kaplan E L, Meier P., Nonparametric Estimation From Incomplete Observations, J Am Stat Assoc 1958; 53:457-81; Mantel N., Evaluation Of Survival Data And Two New Rank Order Statistics Arising In Its Consideration, Cancer Chemother Rep 1966; 50:163-70 Ex-vivo or in vitro data are presented as means±standard errors (SEs) of three repeated experiments. Student's t test was performed. A P value below 0.05 was considered statistically significant. […]

[2] = system: p-STAT3 (Tyr705) in B16 cells; experiment: p-STAT3 immunoblotting in B16 cells; assay type: cell-based, murine; settings: 4 hours, 5 and 10 μM (FIG. 3A)
Experimental: Immunoblotting analysis. Murine melanoma B16 cells and splenocytes were used for protein isolation and immunoblotting analysis as described below. B16 cells were seeded at a density of 2×10^6 cells/well in 6-well culture plates and incubated at 37° C., in an atmosphere containing 5% CO2, with the RPMI 1640 medium overnight. Afterward, B16 cells were cultured in the absence or presence of WP1193 (5 μM, 10 μM). After 3.5 hours, the B16 cells were further cultured in the absence or presence of 20 ng/ml of IFN-α for 30 minutes. For the splenocyte preparation, spleens from two 4- to 6-week-old female mice were harvested and disassociated into a single cell suspension. […] The supernatants were collected and quantified for protein content. […]
Autoradiography of the membranes was performed using Amersham ECL Western blotting detection reagents (Amersham Biosciences). The densities of the protein bands compared with the β-actin protein control were measured with the Image J program provided by the NIH.
In this experiment, B16 cells and splenocytes isolated from C57BL/6J mice and were incubated with either the medium, medium supplemented with titrated WP1193, medium supplemented with IFN-α, or medium supplemented with both IFN-α and WP1193. […] Semi-quantitative densitometry was used to determine the relative levels of p-STAT3 to STAT3 and β-actin.

| Compound | median overall survival [1] | increase in median survival [1] | phosphorylation of p-STAT3 [2] | animals surviving long-term (more than 70 days) ([1]; therapeutic range of 40 mg/kg) |
| --- | --- | --- | --- | --- |
| IFN-α | 27.5 days | 62% | – | – |
| N#C/C(=C\c1cccc(Br)n1)C(=O)N[C@H](c1ccccc1)C1CC1 [WP1193, (S,E)-3-(6-bromopyridin-2-yl)-2-cyano-N-(cyclopropyl(phenyl)methyl)acrylamide] | 18.5 days | 9% | inhibits the phosphorylation of p-STAT3 | > 80% |
